The source of these data is patent US6417235B2, “Method and use of α-amino-β-mercapto-ethane derivatives as dicarbonyl scavengers for treatment of conditions resulting from protein, lipid, and DNA damage” (University of Kentucky Research Foundation, priority 2000, dated 2002).

Experiment [1] deals with glycation of histone H1 by ADP-ribose. In words: Screening of inhibitors of nonoxidative advanced glycation: AGE-fluorescence on 96 well-microtiter plate. It counts as biochemical, calf. The settings on record: (± SEM, n = 2); for AGE-fluorescence (day 5): complete reaction under air. The procedure: All operations were carried out at 4° C. Chromatin was isolated from fresh calf thymus by extraction with 0.14 M NaCl, 0.05 M Na2S2O5, as described earlier in Wondrak supra. After repeated extraction with 5% HCl)4 and centrifugation (1500 g), histone H1 was precipitated from the supernatant by addition of TCA (20% final concentration v/v). The histone H1 precipitate was colleted by centrifugation (12,000 g) and deionized water. After extensive dialysis (MW cut-off: 12,000-14,000) against water for 48 h, the sample was lyophilized and the protein was stored at 4° C. SDS-PAGE (12%) was used to analyze the purity of the preparation.
Earlier studies have reported that D-penicillamine inhibits collagen crosslinking and AGE fluorescence caused by sugars (McPherson, J. D., Shilton, B. H., and Walton, D. J. 1988. Role of Fructose in Glycation and Cross-Linking of Proteins. Biochemistry 27, 1901-1907) and reaction of D-penicillamine with aldehyde groups of proteins (Deshmukh, K., and Nimm, M. E. 1969. A Defect in the Intramolecular and Intermolecular Cross-linking of Collagen caused by Penicillamine. J. Biol. Chem. 244, 1787-1795). A number of different penicillamines and penicillamine derivatives were tested to determine the inhibition of AGE-fluorescence on histone H1 at physiological pH. The reaction conditions for the glycation of histone H1 by ADP-ribose mimic physiological conditions to the extent possible. Reaction mixtures contain 1.5 mg/ml histone Hl, 1.0 mM ADP-ribose, 50 mM potassium phosphate buffer, pH 7.4, 37° C. D,L-penicillamine; L-penicillamine; D-penicllamine; D-penicillaminedisulfide and N,S- isopropylidine-D-penicillamine were tested in concentrations of 1,5 and 10 mM. The detected reaction parameter representing the accumulation of protein damage is AGE-fluorescence ((λex=[…]), which is suppressed by the presence of a compound with inhibitory activity. Generation of AGE-type fluorescence (λex=355 nm; λem=405 nm) was monitored over time at 37° C; which is in the range of the broad excitation/emission maxima of AGE compounds. To allow high throughput sample processing on 96 well microtiter plates, the reaction volumes are 300 μl. Fluorescence on the 96-well microtiter plates was measured using an automated microtiter fluorescence reader. Fluorescence of the 1 ml samples of the glycation reaction mixtures was measured using a Hitachi F-200 fluorescence spectophotometer, and prior to measurement the protein sample is dialyzed extensively against water (MW cutoff=[…]), lyophilized and reconstituted in reaction buffer. For inhibitor screening the plate is read on a Fluoroskan II plate reader (Titertek, ICN) at the excitation/emission wavelengths set forth above at a bandwidth of 35 nm.
The following screening scheme is used (see Table 1): AGE-fluorescence is determined at the beginning and after five days of incubation. Test compounds that are inherently fluorescent (designated false negatives) were identified by the initial fluorescence measurement (See Table 1, NADH for example). Since these are compounds of uncertain activity, they are diverted directly to the second stage of the screen. Aminoguanidine, a known glycation inhibitory agent, was used as a positive control for suppression of the increase on AGE-fluorescence. After five days incubation and plate reading, fluorescence quenchers (designated false positives) are excluded by measuring the quenching activity of the test compound by addition of AGE modified protein having known fluorescence activity to one microtiter plate well containing test compound in the complete reaction mixture. For this, AGE-BSA is used as the AGE-type fluorescence standard. This AGE-BSA test excludes false positives compounds that function by fluorescence quenching. If fluorescence quenching occurs the test compound is excluded from further screening. […] The protein is visualized by silver staining of the gel. […]

The test system of experiment [2] is ΦX-174 DNA. In words: AGE-BSA photosensitized cleavage of ΦX-174 DNA under solar simulated light. It counts as biochemical. The settings on record: for effect on AGE-BSA photosensitized DNA cleavage: solar simulated light, AGE-BSA as photosensitizer; for photosensitizing activity (DNA nicking): SSL 0.8-16 J/cm^2. The procedure: Glycated Proteins as Photosensitizers of DNA Damage in Skin Photoaging. D-Penicillamine inhibits genotoxic consequences of AGE-photosensitization. Accumulation of AGEs on dermal elastin and collagen occurs during normal skin aging in humans. The hypothesis was tested that the intra- and extracellular accumulation of the complex yellow-brown AGE-chromophores contributes to skin aging and carcinogenesis induced by chronic exposure to sunlight. As a possible molecular mechanisms for a detrimental synergism of AGE-formation and exposure to sunlight, photosensitized DNA damage by AGEs was assessed in a simple in vitro system. Irradiation of covalently closed circular ΦX-174 DNA with increasing doses of solar simulated light (SSL) in the presence of AGE-BSA was used to detect photosensitized DNA nicking as a measure of DNA photodamage (panel A). […] Addition of several antioxidants modulated the photosensitization effect (panel C).

The test system of experiment [3] is HaCat keratinocytes. In words: AGE-photosensitization of human skin cells, growth inhibition under solar simulated light.
Protocol: Human HaCat keratinocytes growing on 35 mm dishes were exposed to solar simulated light (1.2 kJ/m^2 UVB and 23 kJ/m^2 UVA) in the presence or absence of AGE-BSA as a model of a protein with advanced glycation endproducts. Control populations were treated in exactly the same way as described above, but were not exposed to solar simulated light (SSL).

`NC(CCS)C(=O)O` (racemic) [D,L-Homocysteine]: the figures for the “AGE-fluorescence (day 0)” value in experiment [1] (compound 1 mM), in experiment [1] (compound 5 mM) and in experiment [1] (compound 10 mM) were 1.3 (0.0) relative units, 1.2 (0.2) relative units and 1.1 (0.1) relative units, respectively. The “AGE-fluorescence (day 5)” value was 16 (1.1) relative units in experiment [1] (compound 1 mM), 22 (0.1) relative units in experiment [1] (compound 5 mM) and 27 (1.7) relative units in experiment [1] (compound 10 mM).
As for `CC(C)(S)C(N)C(=O)O` (racemic) [D,L-Penicillamine], the “AGE-fluorescence (day 0)” value in experiment [1] (compound 1 mM) was 1.1 (0.2) relative units; in experiment [1] (compound 5 mM) it was 1.1 (0.1) relative units; in experiment [1] (compound 10 mM), 1.1 (0.1) relative units. For the same compound, the figures for the “AGE-fluorescence (day 5)” value in experiment [1] (compound 1 mM), in experiment [1] (compound 5 mM) and in experiment [1] (compound 10 mM) were 13 (0.0) relative units, 2.7 (0.0) relative units and 1.7 (0.0) relative units, respectively.
`O=C1CC(=O)NC(=S)N1` [2-Thiobarbituric acid]: the “AGE-fluorescence (day 0)” value in experiment [1] (compound 1 mM) is on record as 1.1 (0.1) relative units; in experiment [1] (compound 5 mM) it was 1.2 (0.1) relative units; in experiment [1] (compound 10 mM), 1.3 (0.1) relative units. For the same compound, the “AGE-fluorescence (day 5)” value is reported as 12 (0.4) relative units in experiment [1] (compound 1 mM), 5.3 (0.4) relative units in experiment [1] (compound 5 mM) and 2.3 (0.0) relative units in experiment [1] (compound 10 mM).
For `NCCS` [Cysteamine], the “AGE-fluorescence (day 0)” value in experiment [1] (compound 1 mM) was 1.0 (0.1) relative units; in experiment [1] (compound 5 mM) it was 1.1 (0.1) relative units; in experiment [1] (compound 10 mM), 1.2 (0.2) relative units. The “AGE-fluorescence (day 5)” value in experiment [1] (compound 1 mM) was 10 (0.6) relative units; in experiment [1] (compound 5 mM), 9.0 (0.7) relative units; in experiment [1] (compound 10 mM), 6.0 (0.3) relative units.
Consider `N[C@@H](CCC(=O)N[C@@H](CS)C(=O)NCC(=O)O)C(=O)O` [GSH, glutathione], for which the “AGE-fluorescence (day 0)” value in experiment [1] (compound 1 mM) is listed as 1.3 (0.0) relative units; in experiment [1] (compound 5 mM), 1.1 (0.3) relative units; in experiment [1] (compound 10 mM), 1.1 (0.0) relative units. Besides, the “AGE-fluorescence (day 5)” value in experiment [1] (compound 1 mM) is given as 19 (0.3) relative units; in experiment [1] (compound 5 mM), 17 (0.3) relative units; in experiment [1] (compound 10 mM) it was 14 (0.5) relative units.
As for `COC(=O)[C@@H](N)CS` [L-Cys-OMe], the “AGE-fluorescence (day 0)” value in experiment [1] (compound 1 mM) is listed as 1.2 (0.1) relative units; in experiment [1] (compound 5 mM) it was 1.3 (0.1) relative units; in experiment [1] (compound 10 mM) it was 1.2 (0.1) relative units. Further, the “AGE-fluorescence (day 5)” value is 15 (0.1) relative units in experiment [1] (compound 1 mM), 12 (0.8) relative units in experiment [1] (compound 5 mM) and 9.0 (0.2) relative units in experiment [1] (compound 10 mM).
Consider `N[C@@H](CS)C(=O)O` [L-Cys], for which the “AGE-fluorescence (day 0)” value was 1.2 (0.1) relative units in experiment [1] (compound 1 mM), 1.1 (0.1) relative units in experiment [1] (compound 5 mM) and 1.2 (0.1) relative units in experiment [1] (compound 10 mM). The “AGE-fluorescence (day 5)” value is recorded as 14 (0.3) relative units in experiment [1] (compound 1 mM), 11 (0.2) relative units in experiment [1] (compound 5 mM) and 9.0 (0.2) relative units in experiment [1] (compound 10 mM).
Consider `C[N+](C)(C)[C@@H](Cc1c[nH]c(=S)[nH]1)C(=O)[O-]` [L-Ergothioneine], for which the entries for the “AGE-fluorescence (day 0)” value in experiment [1] (compound 1 mM), in experiment [1] (compound 5 mM) and in experiment [1] (compound 10 mM) were 1.0 (0.1) relative units, 1.2 (0.0) relative units and 1.2 (0.1) relative units, respectively. Besides, the entries for the “AGE-fluorescence (day 5)” value in experiment [1] (compound 1 mM), in experiment [1] (compound 5 mM) and in experiment [1] (compound 10 mM) were 13 (0.0) relative units, 9.3 (0.2) relative units and 7.4 (0.1) relative units, respectively.
For the compound `OC[C@@H](O)[C@@H](O)[C@H](O)[C@H](O)CO` [Mannitol], the “effect on AGE-BSA photosensitized DNA cleavage” value (“effect” for short) in experiment [2] is “blocked the photosensitized DNA cleavage”.
For `CC(=O)N[C@@H](CS)C(=O)O` [NAC], the figures for the “AGE-fluorescence (day 0)” value in experiment [1] (compound 1 mM), in experiment [1] (compound 5 mM) and in experiment [1] (compound 10 mM) were 1.2 (0.2) relative units, 1.0 (0.1) relative units and 1.1 (0.1) relative units, respectively. Besides, the “AGE-fluorescence (day 5)” value in experiment [1] (compound 1 mM) is reported as 11 (0.6) relative units; in experiment [1] (compound 5 mM), 10 (0.4) relative units; in experiment [1] (compound 10 mM), 9.4 (0.6) relative units.
On to `NC(=O)C1=CN([C@@H]2O[C@H](COP(=O)(O)OP(=O)(O)OC[C@H]3O[C@@H](n4cnc5c(N)ncnc54)[C@H](O)[C@@H]3O)[C@@H](O)[C@H]2O)C=CC1` [NADH], for which, in experiment [1] (compound 5 mM), the “AGE-fluorescence (day 0)” value is 52 (0.3) relative units and the “AGE-fluorescence (day 5)” value was 31 (0.0) relative units.
For `[N-]=[N+]=[N-].[Na+]` [NaN3], the “effect” value in experiment [2] is recorded as “blocked the photosensitized DNA cleavage”.
Turning to “AGE-BSA: Glycosylated Bovine Serum Albumin, BSA incubated with D-glucose for 90 days at 37° C.”, in experiment [3] (10 mg/mL AGE-BSA with SSL), the “increase in growth inhibition as compared to SSL alone” value was 4 fold. In addition, the growth inhibition in experiment [3] (10 mg/mL AGE-BSA with SSL (1.2 kJ/m^2 UVB and 23 kJ/m^2 UVA)) is given as 80%. In experiment [2], the “photosensitizing activity (DNA nicking)” value is listed as “the damage was concentration dependent”.
On to L-Cys-Gly, for which the “AGE-fluorescence (day 0)” value in experiment [1] (compound 1 mM) was 1.3 (0.3) relative units; in experiment [1] (compound 5 mM), 1.2 (0.2) relative units; in experiment [1] (compound 10 mM) it was 1.2 (0.1) relative units. Moreover, the “AGE-fluorescence (day 5)” value in experiment [1] (compound 1 mM) was 17 (0.0) relative units; in experiment [1] (compound 5 mM) it was 26 (0.4) relative units; in experiment [1] (compound 10 mM) it was 40 (0.0) relative units.
For “Unmodified BSA: unmodified bovine serum albumin”, the “photosensitizing activity (DNA nicking)” value in experiment [2] is reported as “no such photosensitizing activity”.
As to catalase, the “effect” value in experiment [2] is given as “not effective”.
